From ChEMBL document CHEMBL1201862, “PubChem BioAssay data set” (2004)
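Results reflect a 48-hour exposure of cells in 96-well plates to compound at five concentrations. At the GI50, growth is halved.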 Active and inactive are the calls of the source. Rule as the data show it: active = GI50 up to about 1.1 µM and inactive = higher.

What was measured:
Assay in all cases: NCI-60 cell line screen, 48 h
[1] = test system: T47D
[2] = test system: U-251
[3] = test system: SF-268
[4] = test system: SNB-75
[5] = test system: HOP-62
[6] = test system: HL-60
[7] = test system: RXF 393
[8] = test system: A498
[9] = test system: SK-OV-3
[10] = test system: CCRF-CEM
[11] = test system: EKVX
[12] = test system: LOX IMVI
[13] = test system: SF-539
[14] = test system: OVCAR-8
[15] = test system: HT-29
[16] = test system: SF-295
[17] = test system: OVCAR-5
[18] = test system: DU-145
[19] = test system: SR
[20] = test system: ACHN

With `COc1ccc2nc3cccc([N+](=O)[O-])c3c(NCCO)c2c1` the GI50 [1] was 0.141 µM (active), the GI50 [2] was 0.0211 µM (active) and the GI50 [3] was 0.0157 µM (active). For the same compound, the GI50 [4] was 0.0942 µM (active), the GI50 [5] was 0.0208 µM (active) and the GI50 [6] was 0.0148 µM (active). For the same compound, the GI50 [7] was 0.0126 µM (active), the GI50 [8] was 0.0507 µM (active) and the GI50 [9] was 0.185 µM (active). For the same compound, the GI50 [10] was 0.0479 µM (active), the GI50 [11] was 0.0238 µM (active) and the GI50 [12] was 0.00149 µM (active). The GI50 [13] was 0.0182 µM (active), the GI50 [14] was 0.0083 µM (active) and the GI50 [15] was 0.00615 µM (active). The GI50 [16] was 0.0684 µM (active), the GI50 [17] was 0.0203 µM (active) and the GI50 [18] was 0.011 µM (active). The GI50 [19] was 0.001 µM (active) and the GI50 [20] was 0.0105 µM (active).

In the case of `COc1ccc(C(SCCO)(c2ccc(OC)cc2)c2ccc(OC)cc2)cc1`, the GI50 [1] is reported as 6.03 µM (inactive), the GI50 [2] is reported as 10.6 µM (inactive) and the GI50 [3] is reported as 17.3 µM (inactive). For the same compound, the GI50 [4] was 22 µM (inactive), the GI50 [5] was 16.4 µM (inactive) and the GI50 [6] was 21 µM (inactive). The GI50 [7] was 12 µM (inactive), the GI50 [8] was 17.8 µM (inactive) and the GI50 [9] was 29.1 µM (inactive). The GI50 [10] was 7.23 µM (inactive), the GI50 [11] was 10.7 µM (inactive) and the GI50 [12] was 14 µM (inactive). The GI50 [13] was 14.4 µM (inactive), the GI50 [14] was 14.9 µM (inactive) and the GI50 [15] was 17 µM (inactive). The GI50 [16] was 12.4 µM (inactive), the GI50 [17] was 22.5 µM (inactive) and the GI50 [18] was 23.4 µM (inactive). For the same compound, the GI50 [19] was 3.4 µM (inactive) and the GI50 [20] was 17.7 µM (inactive).

In the case of `CC(=O)OC(C)c1cc2c(s1)C(=O)c1sccc1C2=O` (configuration not stated), the GI50 [1] is reported as 2.58 µM (inactive), the GI50 [2] is reported as 0.944 µM (active) and the GI50 [3] is reported as 0.989 µM (active). For the same compound, the GI50 [4] was 1.29 µM (inactive), the GI50 [5] was 1.03 µM (active) and the GI50 [6] was 1.74 µM (inactive). For the same compound, the GI50 [7] was 1.56 µM (inactive), the GI50 [8] was 2.33 µM (inactive) and the GI50 [9] was 2.95 µM (inactive). For the same compound, the GI50 [10] was 2.76 µM (inactive), the GI50 [11] was 2.03 µM (inactive) and the GI50 [12] was 0.446 µM (active). The GI50 [13] was 0.268 µM (active), the GI50 [14] was 1.81 µM (inactive) and the GI50 [15] was 1.96 µM (inactive). For the same compound, the GI50 [16] was 0.851 µM (active), the GI50 [17] was 1.73 µM (inactive) and the GI50 [18] was 0.416 µM (active). The GI50 [19] was 0.51 µM (active) and the GI50 [20] was 1.45 µM (inactive).

In the case of `CCOC(=O)NNC(=O)NCc1cccc(CNC(=O)NNC(=O)OCC)c1`, the GI50 [1] is reported as > 100 µM (inactive), the GI50 [2] is reported as > 100 µM (inactive) and the GI50 [3] is reported as > 100 µM (inactive). The GI50 [4] was > 100 µM (inactive), the GI50 [6] was > 100 µM (inactive) and the GI50 [7] was > 100 µM (inactive). For the same compound, the GI50 [8] was > 100 µM (inactive), the GI50 [9] was > 100 µM (inactive) and the GI50 [10] was > 100 µM (inactive). The GI50 [11] was > 100 µM (inactive), the GI50 [12] was > 100 µM (inactive) and the GI50 [13] was > 100 µM (inactive). The GI50 [14] was > 100 µM (inactive), the GI50 [15] was > 100 µM (inactive) and the GI50 [17] was > 100 µM (inactive). For the same compound, the GI50 [18] was > 100 µM (inactive) and the GI50 [19] was > 100 µM (inactive).

With `O=C(CCCN1CCC2(CC1)OC(=O)N(c1ccccc1)C2=O)c1ccccc1` the GI50 [1] was > 100 µM (inactive), the GI50 [2] was > 100 µM (inactive) and the GI50 [3] was > 100 µM (inactive). The GI50 [4] was > 100 µM (inactive), the GI50 [5] was > 100 µM (inactive) and the GI50 [6] was > 100 µM (inactive). The GI50 [7] was > 100 µM (inactive), the GI50 [8] was > 100 µM (inactive) and the GI50 [9] was > 100 µM (inactive). For the same compound, the GI50 [10] was > 100 µM (inactive), the GI50 [11] was > 100 µM (inactive) and the GI50 [12] was > 100 µM (inactive). For the same compound, the GI50 [13] was > 100 µM (inactive), the GI50 [14] was > 100 µM (inactive) and the GI50 [15] was > 100 µM (inactive). The GI50 [16] was > 100 µM (inactive), the GI50 [17] was > 100 µM (inactive) and the GI50 [18] was > 100 µM (inactive). For the same compound, the GI50 [19] was > 100 µM (inactive) and the GI50 [20] was > 100 µM (inactive).

`CC1OC(O)CC(N(C)C)C1O.CC1OC(O)CCC1O.CCC1CC(O)c2c(O)c3c(c(O)c2C1O)C(=O)c1cccc(O)c1C3=O` (configuration not stated) was tested, and the GI50 [1] was 0.0242 µM (active), the GI50 [2] was 0.0211 µM (active) and the GI50 [3] was 0.0335 µM (active). For the same compound, the GI50 [4] was 0.0136 µM (active), the GI50 [5] was 0.034 µM (active) and the GI50 [6] was 0.0305 µM (active). The GI50 [7] was 0.0039 µM (active), the GI50 [8] was 0.0114 µM (active) and the GI50 [9] was 0.033 µM (active). The GI50 [10] was 0.0223 µM (active), the GI50 [11] was 0.0281 µM (active) and the GI50 [12] was 0.0135 µM (active). For the same compound, the GI50 [13] was 0.0373 µM (active), the GI50 [14] was 0.0211 µM (active) and the GI50 [15] was 0.0126 µM (active). The GI50 [16] was 0.0323 µM (active), the GI50 [17] was 0.0375 µM (active) and the GI50 [18] was 0.0333 µM (active). The GI50 [19] was 0.0083 µM (active) and the GI50 [20] was 0.0159 µM (active).

In the case of `NCOC(=O)Cc1ccc(Br)cc1`, the GI50 [1] is reported as > 100 µM (inactive), the GI50 [2] is reported as > 100 µM (inactive) and the GI50 [3] is reported as > 100 µM (inactive). The GI50 [4] was > 100 µM (inactive), the GI50 [5] was > 100 µM (inactive) and the GI50 [6] was 42.3 µM (inactive). For the same compound, the GI50 [7] was > 100 µM (inactive), the GI50 [8] was > 100 µM (inactive) and the GI50 [9] was > 100 µM (inactive). The GI50 [10] was 80 µM (inactive), the GI50 [11] was > 100 µM (inactive) and the GI50 [12] was > 100 µM (inactive). For the same compound, the GI50 [13] was > 100 µM (inactive), the GI50 [14] was > 100 µM (inactive) and the GI50 [15] was > 100 µM (inactive). For the same compound, the GI50 [16] was > 100 µM (inactive), the GI50 [17] was > 100 µM (inactive) and the GI50 [18] was > 100 µM (inactive). The GI50 [19] was 0.383 µM (active) and the GI50 [20] was > 100 µM (inactive).
